In patent US6887904B2, “Substituted arylcycloalkanes, compositions containing them and use thereof” (Aventis Pharma S. A., priority 2001, dated 2005):

What was measured:
HeLa cells = test: Inhibition of proliferation of HeLa cells ([14C]-thymidine incorporation); assay type: cell-based, human
Method: The proliferation of HeLa cells is assessed by measuring the incorporation of [^14C]-thymidine in the following way. The HeLa cells (epithelial tumor cells of human origin) are cultured in a DMEM medium (Gibco) which contains 10% fetal calf serum and antibiotics (1% penicillin, 1% streptomycin). To carry out the proliferation test, the cells are inoculated into 96-well cytostar microplates (Amersham), at a rate of 5 000 cells per well. [^14C]-thymidine (0.1 μCi/well) and the products to be assessed are then added. Variable concentrations of product up to 10 μM are used; the DMSO (solvent used to dissolve the products) should not exceed 0.5% in the medium. After incubation for 48 hours at 37° C., the radioactivity incorporated into the cells is measured by counting the plate in a TRI-LUX counter (Wallac). The IC50 value is defined as the concentration of product which reduces the radioactivity by 50% relative to an untreated control. A product whose IC50 value is less than 1 μM is considered as cytotoxic.

Tubulin = Tubulin (Sus scrofa, UniProt P02550+P02554); test: Inhibition of tubulin polymerization (turbidimetry); assay type: biochemical, pig; conditions: tubulin 10 μM, 37° C., turbidity at 350 nm
Method: Tubulin is purified from pig brains according to the published methods (Shelanski et al., 1973, Proc. Natl, Acad. Sci. USA, 70, 765-768. Weingarten et al., 1975, Proc. Natl, Acad. Sci. USA, 72, 1858-1862). Briefly, the brains are ground and centrifuged in an extraction buffer. The tubulin, contained in the extract supernatant, is subjected to two successive cycles of polymerization at 37° C. and depolymerization at 4° C., before being separated from the MAPs (Microtubule Associated Proteins) by chromatography on a phosphocellulose P11 column (Whatman). The tubulin thus isolated is more than 95% pure. It is stored in a buffer known as RB/2 30% glycerol, the composition of which is MES-NaOH [2-(N-morpholino)ethanesulfonic acid] 50 mM, pH 6.8; MgCl2 0.25 mM; EGTA 0.5 mM; 30% glycerol (v/v), GTP (guanosine 5′-triphosphate) 0.2 mM. The polymerization of the tubulin into microtubules is monitored by turbidimetry as follows; the tubulin is adjusted to a concentration of 10 μM (1 mg/ml) in the RB/2 30% glycerol buffer, to which is added 1 mM GTP and 6 mM MgCl2. The polymerization is initiated by increasing the temperature from 6° C. to 37° C. in a cuvette with a 1 cm optical pathlength, placed in a Uvikon 931 spectrophotometer (Kontron) equipped with a thermostatically-regulated cuvette holder. The increase in the turbidity of the solution is monitored at 350 nm. The products are dissolved at 10 mM in DMSO and added at variable concentrations (0.5 to 10 μM) to the tubulin solution before polymerization. The IC50 value is defined as the concentration of product which inhibits 50% of the rate of polymerization. A product whose IC50 value is less than or equal to 3 μM is considered as very active.

HDMEC cells [1] = test: Inhibition of proliferation of HDMEC cells; assay type: cell-based; conditions: Homo sapiens
HDMEC cells [2] = test: Detachment effect on HDMEC endothelial cells; assay type: cell-based, human; conditions: treatment for two hours
Description: A test to determine the detachment of endothelial cells was established in order to select the products on the basis of their “in vitro” activity. This test for determining the endothelial cell detachment is characterized in that the endothelial cells, inoculated in plates which are coated at the bottom with a binder, e.g., chosen from gelatin, fibronectin or vitronectin, after culturing, are supplemented with a medium containing the test compound, and the cells are then labeled with a fluorescent substance, the cells which become detached are removed by washing and the fluorescence of the remaining cells is counted in a fluorimeter.
This test consists in measuring the detachment of endothelial cells cultured on substrates based on a binder, e.g., chosen from fibronectin, vitronectin and gelatin. […] The fluorescence of the remaining cells is counted in a fluorimeter. […]
The assessment of the detachment of the endothelial cells in vitro is determined in the following way. […] The fluorescence of the cells which remain attached to the substratum of the well is counted using a fluorimeter, Spectrafluor Plus (Tecan, excitation at 485 nm, and emission at 535 nm). The data are the average of six different samples and are expressed as a percentage of the control (untreated cells). […]
The assessment of the detachment of the endothelial cells in vitro is determined in the following way. […]

Chain of Tubulin (P02554 whole entry): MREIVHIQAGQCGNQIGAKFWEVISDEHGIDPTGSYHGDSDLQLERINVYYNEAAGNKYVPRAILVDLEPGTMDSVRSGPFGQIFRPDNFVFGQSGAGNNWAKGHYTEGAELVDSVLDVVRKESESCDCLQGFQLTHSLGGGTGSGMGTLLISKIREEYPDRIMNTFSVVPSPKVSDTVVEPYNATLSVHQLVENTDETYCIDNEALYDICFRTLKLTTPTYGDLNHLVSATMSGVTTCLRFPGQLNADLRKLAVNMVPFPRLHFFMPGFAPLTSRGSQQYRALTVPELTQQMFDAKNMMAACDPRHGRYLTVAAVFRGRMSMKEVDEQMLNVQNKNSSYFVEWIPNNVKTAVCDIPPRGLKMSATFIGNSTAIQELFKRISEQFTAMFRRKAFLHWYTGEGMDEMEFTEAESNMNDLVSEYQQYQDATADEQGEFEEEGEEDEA
Chain of Tubulin (P02550 whole entry): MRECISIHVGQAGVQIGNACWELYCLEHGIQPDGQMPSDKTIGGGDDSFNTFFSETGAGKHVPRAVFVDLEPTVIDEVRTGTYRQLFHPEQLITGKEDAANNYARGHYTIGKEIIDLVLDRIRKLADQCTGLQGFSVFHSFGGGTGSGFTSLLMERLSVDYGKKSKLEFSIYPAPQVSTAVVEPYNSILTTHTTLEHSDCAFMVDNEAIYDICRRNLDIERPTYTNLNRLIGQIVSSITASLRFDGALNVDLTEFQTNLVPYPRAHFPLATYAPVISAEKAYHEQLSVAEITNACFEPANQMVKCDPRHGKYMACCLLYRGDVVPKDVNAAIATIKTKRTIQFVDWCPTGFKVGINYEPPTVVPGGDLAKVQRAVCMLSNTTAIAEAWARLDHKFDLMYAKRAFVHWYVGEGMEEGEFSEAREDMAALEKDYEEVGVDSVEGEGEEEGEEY

SMILES: COc1ccc(C2CC2C(=O)c2cc(OC)c(OC)c(OC)c2)cc1O (racemic) [Example 1, [2-(3-Hydroxy-4-methoxyphenyl)cyclopropyl](3,4,5-trimethoxyphenyl)methanone, trans racemate]
- IC50 (HeLa cells; Homo sapiens, HeLa, 48 h): < 0.0019 µM
- IC50 (Tubulin): 1 µM
- IC50 (HDMEC cells [1]): 0.017 to 0.018 µM
- Percentage of detachment of HDMEC cells induced with the compound cited in the example at a concentration of 1 μM (HDMEC cells [2]): 36-37%

SMILES: COc1cc(C(=O)C2CC2c2ccc(N(C)C)cc2)cc(OC)c1OC (racemic) [Example 2, [2-(4-Dimethylaminophenyl)cyclopropyl](3,4,5-trimethoxyphenyl)methanone, trans racemate]
- IC50 (HeLa cells; 48 hours): 1.45 µM
- IC50 (HeLa cells; Homo sapiens, HeLa, 48 h): 1.35 µM
- IC50 (Tubulin): 2.5 µM
- IC50 (HDMEC cells [1]): 4 µM

SMILES: COc1ccc(C2C3C=CC(C3)C2C(=O)c2cc(OC)c(OC)c(OC)c2)cc1O (racemic) [Example 3, [2-(3-Hydroxy-4-methoxyphenyl)bicyclo[2.2.1]hept-4-enyl](3,4,5-trimethoxyphenyl)methanone, trans racemate]
- IC50 (HeLa cells; Homo sapiens, HeLa, 48 hours): 0.52 to 1.06 µM
- IC50 (Tubulin): 4.5 µM
